Measurements as given in paper PMC4979471 (Cell Death Discovery, 2015).
Where two headings read alike, the source gives them in different places.

What was measured:
Test in all cases: Kinase selectivity, P33-radiolabeled assay
Assay type in all cases: biochemical
ALK2/ACVR1 = biological target: T1, ALK2/ACVR1 (Homo sapiens, UniProt Q04771); conditions: 10 μM ATP
T1 construct: purchased Reaction Biology Corp
T1 sequence (Q04771 21-509): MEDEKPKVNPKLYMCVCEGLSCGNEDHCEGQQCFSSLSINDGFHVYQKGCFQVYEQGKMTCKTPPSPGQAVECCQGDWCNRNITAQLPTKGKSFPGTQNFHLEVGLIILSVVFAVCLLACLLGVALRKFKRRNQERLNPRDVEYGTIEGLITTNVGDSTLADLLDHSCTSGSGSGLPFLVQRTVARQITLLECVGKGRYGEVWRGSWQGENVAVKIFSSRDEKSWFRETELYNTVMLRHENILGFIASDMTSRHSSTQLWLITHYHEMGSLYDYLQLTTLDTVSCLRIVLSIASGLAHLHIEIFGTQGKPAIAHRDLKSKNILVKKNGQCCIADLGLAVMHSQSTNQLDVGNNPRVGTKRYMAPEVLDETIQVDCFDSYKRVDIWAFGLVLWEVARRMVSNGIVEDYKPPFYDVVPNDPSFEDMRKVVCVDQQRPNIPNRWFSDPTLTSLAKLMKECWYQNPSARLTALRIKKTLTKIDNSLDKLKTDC
Method in brief: (§1)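 Values show % enzyme activity normalised to DMSO vehicle. They come from one 10 μM compound concentration run twice, at an ATP level of 10 μM.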

BRK = biological target: T2, BRK (Homo sapiens, UniProt Q13882); conditions: 10 μM ATP
T2 construct: purchased Reaction Biology Corp
T2 sequence (Q13882 whole entry): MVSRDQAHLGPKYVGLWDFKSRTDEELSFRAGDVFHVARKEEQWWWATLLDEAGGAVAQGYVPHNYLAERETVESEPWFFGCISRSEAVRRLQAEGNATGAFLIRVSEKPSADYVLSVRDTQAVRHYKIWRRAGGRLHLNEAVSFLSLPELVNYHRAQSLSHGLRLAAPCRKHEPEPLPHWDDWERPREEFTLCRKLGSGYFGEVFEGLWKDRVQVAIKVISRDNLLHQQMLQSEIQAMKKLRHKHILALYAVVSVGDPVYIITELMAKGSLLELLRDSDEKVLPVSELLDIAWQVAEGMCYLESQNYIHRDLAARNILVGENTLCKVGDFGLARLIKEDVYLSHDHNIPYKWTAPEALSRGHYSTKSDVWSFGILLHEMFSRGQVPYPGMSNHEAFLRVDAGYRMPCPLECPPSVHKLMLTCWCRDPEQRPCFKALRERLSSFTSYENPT
Method in brief: as §1

CDK1/cyclin A = biological target: T3, CDK1/cyclin A (Homo sapiens, UniProt P06493); conditions: 10 μM ATP
T3 construct: purchased Reaction Biology Corp
Method in brief: as §1

CDK2/cyclin A = biological target: T4, CDK2/cyclin A (Homo sapiens, UniProt P24941); conditions: 10 μM ATP
T4 construct: purchased Reaction Biology Corp
Method in brief: as §1

CLK4 = biological target: T5, CLK4 (Homo sapiens, UniProt Q9HAZ1); conditions: 10 μM ATP
T5 construct: purchased Reaction Biology Corp
T5 sequence (Q9HAZ1 whole entry): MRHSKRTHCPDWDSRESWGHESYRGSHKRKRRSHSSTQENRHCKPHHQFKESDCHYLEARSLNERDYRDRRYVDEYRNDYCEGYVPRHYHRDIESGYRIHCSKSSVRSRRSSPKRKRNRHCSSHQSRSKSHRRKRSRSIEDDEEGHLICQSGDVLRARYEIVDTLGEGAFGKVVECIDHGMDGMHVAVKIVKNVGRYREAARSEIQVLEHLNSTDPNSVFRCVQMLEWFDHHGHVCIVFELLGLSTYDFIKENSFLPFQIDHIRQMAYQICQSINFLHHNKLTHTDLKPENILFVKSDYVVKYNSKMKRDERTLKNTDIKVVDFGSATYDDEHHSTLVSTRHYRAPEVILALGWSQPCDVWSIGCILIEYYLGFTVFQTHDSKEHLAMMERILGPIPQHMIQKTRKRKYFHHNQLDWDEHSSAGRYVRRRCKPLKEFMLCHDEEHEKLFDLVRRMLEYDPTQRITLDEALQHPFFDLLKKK
Method in brief: as §1

DYRK1/DYRK1A = biological target: T6, DYRK1/DYRK1A (Homo sapiens, UniProt Q13627); conditions: 10 μM ATP
T6 construct: purchased Reaction Biology Corp
Method in brief: as §1

JNK3 = biological target: T7, JNK3 (Homo sapiens, UniProt P53779); conditions: 10 μM ATP
T7 construct: purchased Reaction Biology Corp
T7 sequence (P53779 whole entry): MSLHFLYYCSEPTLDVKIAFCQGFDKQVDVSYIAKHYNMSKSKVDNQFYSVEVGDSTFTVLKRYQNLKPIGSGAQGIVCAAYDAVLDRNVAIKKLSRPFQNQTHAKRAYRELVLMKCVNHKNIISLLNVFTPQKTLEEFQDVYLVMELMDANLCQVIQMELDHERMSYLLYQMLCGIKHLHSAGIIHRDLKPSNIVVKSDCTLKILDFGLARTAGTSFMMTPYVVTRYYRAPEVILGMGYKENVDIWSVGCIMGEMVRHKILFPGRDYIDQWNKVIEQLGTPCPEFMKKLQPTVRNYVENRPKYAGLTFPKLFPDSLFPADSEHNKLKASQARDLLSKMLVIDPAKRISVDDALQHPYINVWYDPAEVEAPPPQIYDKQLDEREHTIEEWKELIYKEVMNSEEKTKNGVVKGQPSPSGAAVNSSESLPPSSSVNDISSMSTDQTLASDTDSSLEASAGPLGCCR
Method in brief: as §1

KHS/MAP4K5 = biological target: T8, KHS/MAP4K5 (Homo sapiens, UniProt Q9Y4K4); conditions: 10 μM ATP
T8 construct: purchased Reaction Biology Corp
Method in brief: as §1

LRRK2 = biological target: T9, LRRK2 (Homo sapiens, UniProt Q5S007); conditions: 10 μM ATP
T9 construct: purchased Reaction Biology Corp
Method in brief: as §1

LYN = biological target: T10, LYN (Homo sapiens, UniProt P07948); conditions: 10 μM ATP
T10 construct: purchased Reaction Biology Corp
T10 sequence (P07948 whole entry): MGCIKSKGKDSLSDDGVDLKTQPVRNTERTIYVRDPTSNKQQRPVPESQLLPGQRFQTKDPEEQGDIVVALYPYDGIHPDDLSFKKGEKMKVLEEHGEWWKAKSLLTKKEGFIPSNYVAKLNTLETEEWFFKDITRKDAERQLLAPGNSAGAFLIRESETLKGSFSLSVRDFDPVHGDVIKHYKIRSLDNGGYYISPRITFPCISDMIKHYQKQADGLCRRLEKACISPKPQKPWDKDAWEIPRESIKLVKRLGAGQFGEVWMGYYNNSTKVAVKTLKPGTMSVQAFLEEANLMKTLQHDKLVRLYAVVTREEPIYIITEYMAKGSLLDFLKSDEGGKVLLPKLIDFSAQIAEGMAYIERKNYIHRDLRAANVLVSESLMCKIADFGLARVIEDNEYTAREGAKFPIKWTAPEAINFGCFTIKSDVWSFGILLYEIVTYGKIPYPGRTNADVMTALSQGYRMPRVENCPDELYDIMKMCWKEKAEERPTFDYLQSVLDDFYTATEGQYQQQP
Method in brief: as §1

MAPKAPK5/PRAK = biological target: T11, MAPKAPK5/PRAK (Homo sapiens, UniProt Q8IW41); conditions: 10 μM ATP
T11 construct: purchased Reaction Biology Corp
T11 sequence (Q8IW41 1-473): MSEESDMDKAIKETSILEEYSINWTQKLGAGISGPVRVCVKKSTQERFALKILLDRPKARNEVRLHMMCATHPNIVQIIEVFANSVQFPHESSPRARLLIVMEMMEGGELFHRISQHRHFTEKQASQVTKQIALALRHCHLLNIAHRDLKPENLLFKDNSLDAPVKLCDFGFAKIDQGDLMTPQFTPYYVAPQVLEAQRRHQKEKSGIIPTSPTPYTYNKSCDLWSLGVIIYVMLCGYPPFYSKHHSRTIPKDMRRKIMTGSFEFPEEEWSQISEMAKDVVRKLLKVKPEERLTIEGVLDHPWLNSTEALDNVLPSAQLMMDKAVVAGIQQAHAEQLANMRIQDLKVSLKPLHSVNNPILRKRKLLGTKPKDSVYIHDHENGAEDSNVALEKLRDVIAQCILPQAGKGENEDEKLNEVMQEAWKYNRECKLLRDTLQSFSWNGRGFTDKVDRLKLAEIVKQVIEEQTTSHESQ
Method in brief: as §1

P38d/MAPK13 = biological target: T12, P38d/MAPK13 (Homo sapiens, UniProt O15264); conditions: 10 μM ATP
T12 construct: purchased Reaction Biology Corp
T12 sequence (O15264 1-365): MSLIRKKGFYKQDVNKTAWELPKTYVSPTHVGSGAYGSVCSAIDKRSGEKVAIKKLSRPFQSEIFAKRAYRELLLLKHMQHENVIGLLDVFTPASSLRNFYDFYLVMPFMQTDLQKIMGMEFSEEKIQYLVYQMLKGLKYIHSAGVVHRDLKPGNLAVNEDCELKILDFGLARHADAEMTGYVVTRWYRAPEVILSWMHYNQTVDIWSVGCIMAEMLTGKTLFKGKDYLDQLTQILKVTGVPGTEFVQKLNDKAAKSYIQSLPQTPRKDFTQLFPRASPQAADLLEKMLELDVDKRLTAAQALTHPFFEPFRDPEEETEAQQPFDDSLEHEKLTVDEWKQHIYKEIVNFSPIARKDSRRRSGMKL
Method in brief: as §1

RET = biological target: T13, RET (Homo sapiens, UniProt P07949); conditions: 10 μM ATP
T13 construct: purchased Reaction Biology Corp
T13 sequence (P07949 29-1114): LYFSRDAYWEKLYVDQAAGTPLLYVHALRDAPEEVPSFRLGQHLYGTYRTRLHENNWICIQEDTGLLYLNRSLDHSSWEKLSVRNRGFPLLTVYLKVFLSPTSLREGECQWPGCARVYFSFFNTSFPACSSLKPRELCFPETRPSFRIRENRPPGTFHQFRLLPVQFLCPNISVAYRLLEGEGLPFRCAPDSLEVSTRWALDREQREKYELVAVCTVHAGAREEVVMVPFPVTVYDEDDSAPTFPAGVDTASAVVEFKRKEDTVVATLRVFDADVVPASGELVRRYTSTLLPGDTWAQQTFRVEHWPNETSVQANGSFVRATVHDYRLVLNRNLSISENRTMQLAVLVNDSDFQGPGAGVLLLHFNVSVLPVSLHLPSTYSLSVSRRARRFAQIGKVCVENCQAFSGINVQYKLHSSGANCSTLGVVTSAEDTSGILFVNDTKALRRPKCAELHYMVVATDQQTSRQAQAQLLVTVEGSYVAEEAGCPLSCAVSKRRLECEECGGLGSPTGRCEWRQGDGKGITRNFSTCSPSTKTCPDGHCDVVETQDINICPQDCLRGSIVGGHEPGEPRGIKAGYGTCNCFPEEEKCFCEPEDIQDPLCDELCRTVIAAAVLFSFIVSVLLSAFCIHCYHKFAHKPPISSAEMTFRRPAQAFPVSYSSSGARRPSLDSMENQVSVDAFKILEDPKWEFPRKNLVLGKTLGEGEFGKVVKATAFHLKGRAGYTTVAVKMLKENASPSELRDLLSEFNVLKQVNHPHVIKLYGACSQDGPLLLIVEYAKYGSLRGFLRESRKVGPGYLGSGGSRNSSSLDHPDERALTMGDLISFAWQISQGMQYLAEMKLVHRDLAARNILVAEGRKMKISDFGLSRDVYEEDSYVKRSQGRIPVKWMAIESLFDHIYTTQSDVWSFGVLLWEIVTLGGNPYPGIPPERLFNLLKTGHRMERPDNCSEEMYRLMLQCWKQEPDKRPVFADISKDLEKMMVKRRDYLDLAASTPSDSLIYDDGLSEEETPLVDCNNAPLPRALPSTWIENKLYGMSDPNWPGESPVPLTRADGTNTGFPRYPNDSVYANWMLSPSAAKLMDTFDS
Method in brief: as §1

ROS/ROS1 = biological target: T14, ROS/ROS1 (Homo sapiens, UniProt P08922)
T14 construct: purchased Reaction Biology Corp
Method in brief: as §1

TTBK1 = biological target: T15, TTBK1 (Homo sapiens, UniProt Q5TCY1); conditions: 10 μM ATP
T15 construct: purchased Reaction Biology Corp
T15 sequence (Q5TCY1 whole entry): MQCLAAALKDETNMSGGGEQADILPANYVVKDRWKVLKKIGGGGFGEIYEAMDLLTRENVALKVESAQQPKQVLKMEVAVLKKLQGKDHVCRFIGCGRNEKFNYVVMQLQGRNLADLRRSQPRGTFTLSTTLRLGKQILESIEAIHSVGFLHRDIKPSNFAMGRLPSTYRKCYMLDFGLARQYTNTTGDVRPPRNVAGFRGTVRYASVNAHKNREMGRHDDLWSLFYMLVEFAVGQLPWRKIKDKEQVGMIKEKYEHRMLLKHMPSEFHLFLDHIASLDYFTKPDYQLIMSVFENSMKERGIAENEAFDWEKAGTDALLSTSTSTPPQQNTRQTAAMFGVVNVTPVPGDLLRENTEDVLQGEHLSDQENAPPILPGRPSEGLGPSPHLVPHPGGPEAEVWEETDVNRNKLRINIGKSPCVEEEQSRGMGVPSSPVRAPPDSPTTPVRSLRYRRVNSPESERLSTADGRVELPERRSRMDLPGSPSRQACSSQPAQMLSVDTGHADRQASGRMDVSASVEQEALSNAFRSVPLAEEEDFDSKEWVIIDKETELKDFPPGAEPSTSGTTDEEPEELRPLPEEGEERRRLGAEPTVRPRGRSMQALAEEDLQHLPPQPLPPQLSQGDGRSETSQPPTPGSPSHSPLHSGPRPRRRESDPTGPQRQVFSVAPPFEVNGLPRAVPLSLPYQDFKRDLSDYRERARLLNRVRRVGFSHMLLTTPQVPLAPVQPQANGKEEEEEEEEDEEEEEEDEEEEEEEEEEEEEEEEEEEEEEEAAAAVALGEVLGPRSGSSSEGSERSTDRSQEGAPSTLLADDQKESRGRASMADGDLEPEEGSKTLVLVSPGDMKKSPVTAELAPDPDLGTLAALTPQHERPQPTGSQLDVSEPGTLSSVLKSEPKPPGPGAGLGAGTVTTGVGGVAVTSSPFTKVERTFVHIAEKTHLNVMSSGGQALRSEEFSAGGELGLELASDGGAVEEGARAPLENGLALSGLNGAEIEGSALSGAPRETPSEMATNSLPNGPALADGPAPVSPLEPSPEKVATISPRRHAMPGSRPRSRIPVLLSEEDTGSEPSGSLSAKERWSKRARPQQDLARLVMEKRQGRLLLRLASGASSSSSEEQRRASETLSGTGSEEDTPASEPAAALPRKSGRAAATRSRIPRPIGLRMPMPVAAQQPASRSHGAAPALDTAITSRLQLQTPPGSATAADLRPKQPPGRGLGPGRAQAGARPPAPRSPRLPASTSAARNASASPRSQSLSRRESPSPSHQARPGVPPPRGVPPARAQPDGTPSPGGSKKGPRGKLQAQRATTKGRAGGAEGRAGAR
Method in brief: as §1

YES/YES1 = biological target: T16, YES/YES1 (Homo sapiens, UniProt P07947); conditions: 10 μM ATP
T16 construct: purchased Reaction Biology Corp
T16 sequence (P07947 whole entry): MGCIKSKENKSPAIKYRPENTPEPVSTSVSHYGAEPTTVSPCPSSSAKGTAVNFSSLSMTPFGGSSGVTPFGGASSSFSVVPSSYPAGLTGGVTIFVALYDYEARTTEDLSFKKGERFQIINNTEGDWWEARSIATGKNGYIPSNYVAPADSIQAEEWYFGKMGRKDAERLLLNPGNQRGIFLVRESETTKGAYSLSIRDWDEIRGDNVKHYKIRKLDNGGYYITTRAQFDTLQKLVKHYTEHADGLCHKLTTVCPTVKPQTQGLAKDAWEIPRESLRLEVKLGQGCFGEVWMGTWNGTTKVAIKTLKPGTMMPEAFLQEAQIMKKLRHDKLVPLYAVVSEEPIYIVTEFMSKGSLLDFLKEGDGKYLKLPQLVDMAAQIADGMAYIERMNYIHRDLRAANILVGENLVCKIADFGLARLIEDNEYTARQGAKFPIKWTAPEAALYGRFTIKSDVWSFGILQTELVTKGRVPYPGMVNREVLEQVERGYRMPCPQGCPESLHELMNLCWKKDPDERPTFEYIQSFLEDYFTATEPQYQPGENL
Method in brief: as §1

[1] = read-out: % Enzyme Activity (relative to DMSO controls) AVG
[2] = read-out: % Enzyme Activity (relative to DMSO controls) Data 1
[3] = read-out: % Enzyme Activity (relative to DMSO controls) Data 2

Compound: CC(C)(C)C(=O)N1N=CC[C@H]1c1ccccc1 [GSK′963]
- remaining activity at 10 µM (ALK2/ACVR1; [1]): 98.1%
- remaining activity at 10 µM (ALK2/ACVR1; [2]): 94%
- remaining activity at 10 µM (ALK2/ACVR1; [3]): 102%
- remaining activity at 10 µM (BRK; [1]): 93.2%
- remaining activity at 10 µM (BRK; [2]): 96.2%
- remaining activity at 10 µM (BRK; [3]): 90.2%
- remaining activity at 10 µM (CDK1/cyclin A; [1]): 105%
- remaining activity at 10 µM (CDK1/cyclin A; [2]): 107%
- remaining activity at 10 µM (CDK1/cyclin A; [3]): 102%
- remaining activity at 10 µM (CDK2/cyclin A; [1]): 93.6%
- remaining activity at 10 µM (CDK2/cyclin A; [2]): 95.3%
- remaining activity at 10 µM (CDK2/cyclin A; [3]): 92%
- remaining activity at 10 µM (CLK4; [1]): 100%
- remaining activity at 10 µM (CLK4; [2]): 101%
- remaining activity at 10 µM (CLK4; [3]): 99.8%
- remaining activity at 10 µM (DYRK1/DYRK1A; [1]): 103%
- remaining activity at 10 µM (DYRK1/DYRK1A; [2]): 103%
- remaining activity at 10 µM (DYRK1/DYRK1A; [3]): 103%
- remaining activity at 10 µM (JNK3; [1]): 100%
- remaining activity at 10 µM (JNK3; [2]): 101%
- remaining activity at 10 µM (JNK3; [3]): 100%
- remaining activity at 10 µM (KHS/MAP4K5; [1]): 93.8%
- remaining activity at 10 µM (KHS/MAP4K5; [2]): 91.7%
- remaining activity at 10 µM (KHS/MAP4K5; [3]): 96%
- remaining activity at 10 µM (LRRK2; [1]): 99.5%
- remaining activity at 10 µM (LRRK2; [2]): 102%
- remaining activity at 10 µM (LRRK2; [3]): 97.1%
- remaining activity at 10 µM (LYN; [1]): 107%
- remaining activity at 10 µM (LYN; [2]): 109%
- remaining activity at 10 µM (LYN; [3]): 105%
- remaining activity at 10 µM (MAPKAPK5/PRAK; [1]): 116%
- remaining activity at 10 µM (MAPKAPK5/PRAK; [2]): 115%
- remaining activity at 10 µM (MAPKAPK5/PRAK; [3]): 117%
- remaining activity at 10 µM (P38d/MAPK13; [1]): 100%
- remaining activity at 10 µM (P38d/MAPK13; [2]): 99.8%
- remaining activity at 10 µM (P38d/MAPK13; [3]): 101%
- remaining activity at 10 µM (RET; [1]): 108%
- remaining activity at 10 µM (RET; [2]): 107%
- remaining activity at 10 µM (RET; [3]): 108%
- remaining activity at 10 µM (ROS/ROS1; 10 uM, 10 μM ATP, read-out: % Enzyme Activity (relative to DMSO controls) Data 1): 102%
- remaining activity at 10 µM (ROS/ROS1; 10 uM, 10 μM ATP, read-out: % Enzyme Activity (relative to DMSO controls) Data 2): 100%
- remaining activity at 10 µM (ROS/ROS1; [1]): 101%
- remaining activity at 10 µM (TTBK1; [1]): 110%
- remaining activity at 10 µM (TTBK1; [2]): 109%
- remaining activity at 10 µM (TTBK1; [3]): 111%
- remaining activity at 10 µM (YES/YES1; [1]): 88.2%
- remaining activity at 10 µM (YES/YES1; [2]): 88.7%
- remaining activity at 10 µM (YES/YES1; [3]): 87.8%
